ChEMBL document CHEMBL1143316, “Japonicones A-D, bioactive dimeric sesquiterpenes from Inula japonica Thunb” (Bioorg Med Chem Lett, 2009)
≈ marks a conversion by molar mass, not a printed value.

Experiments:
Type in all cases: functional, cell-based
[1] = test system: A549; assay: Cytotoxicity against human A549 cells by MTT assay
[2] = test system: LoVo; assay: Cytotoxicity against human LoVo cells by MTT assay
[3] = test system: CCRF-CEM; assay: Cytotoxicity against human CEM cells by MTT assay
[4] = test system: MDA-MB-435; assay: Cytotoxicity against human MDA-MB-435 cells by MTT assay

Question: With C=C1C(=O)O[C@@H]2C[C@@H](C)[C@]34C[C@]5(C(=O)O[C@H]6C[C@@]7(C)C(=C[C@H]65)[C@H](C)CC[C@@H]7O)[C@H](C(C)=C3C[C@@H]12)[C@@H]4OC(C)=O [JAPONICONE A] as the compound, how does the IC50 [1] read?
Answer: 1.62 µg/mL (≈ 3.02 µM)

Question: And the IC50 [2]?
Answer: 0.256 µg/mL (≈ 0.477 µM)

Question: What about the IC50 [3] of the same compound?
Answer: 0.001 µg/mL (≈ 0.00186 µM)

Question: What about the IC50 [4] of the same compound?
Answer: 0.198 µg/mL (≈ 0.369 µM)
